Measurements reported in patent US8703951B2, “Synthesis of 4H-benzo[D]pyrrolo[1,2-A]thiazoles and indolizino[6,7-b]indole derivatives and their use as antitumor therapeutic agents” (Academia Sinica, priority 2011, dated 2014).
Like-named read-outs stand apart in the source and are kept apart here.

Tests used:
oral cancer OECM-1 = experiment: In vitro cytotoxicity, Alamar blue assay, OECM-1; assay type: cell-based, human
Experimental: (§1) Prostate cancer PC3, non-small cell lung carcinoma cells H1299, and human glioma cells U87 were purchased from the American Type Culture Collection (Rockville, Md.). OECM-1 (human gingival squamous cell carcinoma cells) was obtained from Dr C.-L. Meng (National Defense Medical College, Taiwan).^22
(§2) In preparation for in vitro cytotoxicity assays, cells were cultured at an initial density 2−5×10^4 cells per milliliter. They were maintained in a 5% CO2-humidified atmosphere at 37° C. in RPMI medium 1640 (GIBCO/BRL) containing penicillin (100 units/mL), streptomycin (100 μg/mL, GIBCO/BRL), and 5% heat-inactivated FBS. For cells grown in suspension (such as CCRF-CEM and its sublines), cytotoxicity was measured, by using XTT microculture method^23 in 96-well microtiter plates.
(§3) The cytotoxic effects of the newly synthesized compounds were determined in T-cell acute lymphocytic leukemia (CCRF-CEM) and their resistant subcell lines (CCRF-CEM/Taxol and CCRF-CEM/VBL) by the XTT assay^24 and human solid tumor cells (i.e. breast carcinoma MX-1 and colon carcinoma HCT-116) by the SRB assay^25 in a 72 h incubation using a microplate spectrophotometer as described previously.^25 After the addition of phenazine methosulfate-XTT solution, incubated at 37° C. for 6 h and absorbance at 450 and 630 nm was detected on a microplate reader (EL 340). The cytotoxicity of the newly synthesized compounds against non-small cell lung carcinoma H1299, prostate cancer PC3, oral cancer OECM-1 and glioma U87 were determined by the Alamar blue assay^26 in a 72 h incubation using a microplate spectrophotometer as described previously. After the addition of alamar blue solution, it was incubated at 37° C. for 6 h. Absorbance at 570 and 600 nm was detected on a microplate reader. IC50 values were determined from dose-effect relationship at six or seven concentrations of each drug using the CompuSyn software by Chou and Martin^27 based on the median-effect principle and plot.^28,29 Ranges given for Cisplatin were mean±SE (n=4).

prostate cancer PC3 = experiment: In vitro cytotoxicity, Alamar blue assay, PC3; assay type: cell-based, human
Experimental: as §1, §2, §3

[1] = test system: non-small cell lung carcinoma H1299; experiment: In vitro cytotoxicity, Alamar blue assay, H1299; assay type: cell-based, human
Experimental: as §1, §2, §3

glioma U87 = experiment: In vitro cytotoxicity, Alamar blue assay, U87; assay type: cell-based, human
Experimental: as §1, §2, §3

[2] = test system: human lymphoblastic leukemia (CCRF-CEM); experiment: In vitro cytotoxicity, XTT assay, CCRF-CEM; assay type: cell-based; settings: Homo sapiens, CCRF-CEM, Table 5, 72 h incubation, read-out: Cell Growth inhibition (IC50 μM) CCRF-CEM
Source text: (§4) Human colon carcinoma HCT-116 cells and human prostate adenocarcinoma PC-3 cells were obtained from American Type Culture Collection (ATCC, Rockville, Md.). Human mammary carcinoma (MX-1) tumor cells were obtained from MSKCC cell bank. The CCRF-CEM human lymphoblastic leukemia cells and their vinblastine resistant subline (CCRF-CEM/VBL, 680-fold resistance in vitro) were obtained from Dr. William Beck of the University of Illinois, Chicago, and CCRF-CEM/Taxol (330-fold resistance in vitro). Resistant cells CCRF-CEM/taxol were produced by exposing the parent cells to increasing sublethal concentration (IC50-IC90) of paclitaxel for six months.
as §2, §3

CCRF-CEM/Taxol = experiment: In vitro cytotoxicity, XTT assay, CCRF-CEM/Taxol; assay type: cell-based, human; settings: Table 5; for IC50: Homo sapiens, CCRF-CEM, Taxol-resistant subline, XTT, 72 h, read-out: Cell Growth inhibition (IC50 μM) CCRF-CEM/Taxol; for fold of cross-resistant vs IC50 of the parent cell line, CCRF-CEM/Taxol: number in brackets
Source text: as §4, §2, §3

breast carcinoma MX-1 = experiment: In vitro cytotoxicity, SRB assay, MX-1; assay type: cell-based, human; settings: Homo sapiens, Table 6, 72 h
Source text: as §4, §2, §3

colon carcinoma HCT-116 = experiment: In vitro cytotoxicity, SRB assay, HCT-116; assay type: cell-based, human; settings: Homo sapiens, HCT-116, Table 6, 72 h
Source text: as §4, §2, §3

CCRF-CEM/VBL = experiment: In vitro cytotoxicity, XTT assay, CCRF-CEM/VBL; assay type: cell-based, human; settings: Table 5; for IC50: Homo sapiens, CCRF-CEM, vinblastine-resistant subline, XTT, 72 h, read-out: Cell Growth inhibition (IC50 μM) CCRF-CEM/VBL; for fold of cross-resistant vs IC50 of the parent cell line, CCRF-CEM/VBL: number in brackets
Source text: as §4, §2, §3

[3] = Homo sapiens, OECM1, Table 6, 72 h
[4] = Homo sapiens, NCI-H1299, Table 6, 72 h

Compound `N.N.[Cl][Pt][Cl]` [Cisplatin, reference compound] has an IC50 (oral cancer OECM-1; Table 6, 72 h) of 2.44 ± 0.53 µM, an IC50 (oral cancer OECM-1; Table 7, 72 h, read-out: IC50 (μM) OECM1) of 2.44 ± 0.53 µM and an IC50 (prostate cancer PC3; Table 6, 72 h) of 4.71 ± 0.66 µM. It also gave an IC50 (prostate cancer PC3; Table 7, 72 h) of 4.71 ± 0.66 µM, an IC50 ([1]; Table 6, 72 h) of 16.5 ± 0.9 µM and an IC50 ([1]; Table 7, 72 h) of 16.5 ± 0.9 µM. For the same compound, the IC50 (glioma U87; Table 6, 72 h) was 54.6 ± 3.33 µM and the IC50 (glioma U87; Table 7, 72 h) was 54.6 ± 3.33 µM.

In the case of `Cc1c(CO)c(CO)c2sc3ccccc3n12` [Compound 18a, (1-Methylbenzo[d]pyrrolo[2,1-b]thiazole-2,3-diyl)dimethanol], the IC50 [2] is reported as 0.97 ± 0.03 µM, the IC50 (CCRF-CEM/Taxol) is reported as 1.88 ± 0.007 µM and the “fold of cross-resistant vs IC50 of the parent cell line, CCRF-CEM/Taxol” value (shortened to “fold of cross-resistant vs IC50 … CCRF-CEM/Taxol”) (CCRF-CEM/Taxol) is reported as 1.93 ×. For the same compound, the IC50 (breast carcinoma MX-1) was 7.1 ± 0.037 µM, the IC50 (colon carcinoma HCT-116) was 4.44 ± 0.08 µM and the IC50 (CCRF-CEM/VBL) was 1.86 ± 0.01 µM. For the same compound, the “fold of cross-resistant vs IC50 of the parent cell line, CCRF-CEM/VBL” value (“fold of cross-resistant vs IC50 … CCRF-CEM/VBL” below) (CCRF-CEM/VBL) was 1.91 ×.

In the case of `OCc1c(CO)c2sc3ccccc3n2c1-c1ccc(F)cc1` [Compound 18b, (1-(4-Fluorophenyl)benzo[d]pyrrolo[2,1-b]thiazole-2,3-diyl)dimethanol], the IC50 (oral cancer OECM-1; [3]) is reported as 6.03 ± 1.2 µM, the IC50 (prostate cancer PC3; Homo sapiens, Table 6, 72 h) is reported as 13.8 ± 2.15 µM and the IC50 [2] is reported as 1.06 ± 0.04 µM. The IC50 [1, 4] was 9.27 ± 1.69 µM, the IC50 (glioma U87; Homo sapiens, Table 6, 72 h) was 15.5 ± 1.31 µM and the IC50 (CCRF-CEM/Taxol) was 2.56 ± 0.012 µM. The “fold of cross-resistant vs IC50 … CCRF-CEM/Taxol” value (CCRF-CEM/Taxol) was 2.41 ×, the IC50 (breast carcinoma MX-1) was 2.77 ± 0.005 µM and the IC50 (colon carcinoma HCT-116) was 9.59 ± 0.19 µM. For the same compound, the IC50 (CCRF-CEM/VBL) was 3.72 ± 0.175 µM and the “fold of cross-resistant vs IC50 … CCRF-CEM/VBL” value (CCRF-CEM/VBL) was 3.50 ×.

Work on `OCc1c(CO)c2sc3ccccc3n2c1-c1ccc(F)c(F)c1` [Compound 18d, (1-(3,4-Difluorophenyl)benzo[d]pyrrolo[2,1-b]thiazole-2,3-diyl)dimethanol] yielded an IC50 (oral cancer OECM-1; [3]) of 8.48 ± 0.67 µM, an IC50 (prostate cancer PC3; Homo sapiens, Table 6, 72 h) of 15.2 ± 1.86 µM and an IC50 [2] of 0.19 ± 0.02 µM. It also gave an IC50 [1, 4] of 21.4 ± 3.74 µM, an IC50 (glioma U87; Homo sapiens, Table 6, 72 h) of 17.4 ± 1.86 µM and an IC50 (CCRF-CEM/Taxol) of 0.19 ± 0.004 µM. The “fold of cross-resistant vs IC50 … CCRF-CEM/Taxol” value (CCRF-CEM/Taxol) was 100 ×, the IC50 (CCRF-CEM/VBL) was 0.28 ± 0.006 µM and the “fold of cross-resistant vs IC50 … CCRF-CEM/VBL” value (CCRF-CEM/VBL) was 1.47 ×.

With `OCc1c(CO)c2sc3ccccc3n2c1-c1ccc(Cl)c(Cl)c1` [Compound 18e, (1-(3,4-Dichlorophenyl)benzo[d]pyrrolo[2,1-b]thiazole-2,3-diyl)dimethanol] the melting point was 159 to 160 °C.

For `OCc1c(CO)c2sc3ccccc3n2c1-c1ccc(F)c(Cl)c1` [Compound 18f, (1-(3-Chloro-4-fluorophenyl)benzo[d]pyrrolo[2,1-b]thiazole-2,3-diyl)dimethanol], the melting point was 178 to 179 °C.

Work on `COc1ccc(-c2c(CO)c(CO)c3sc4ccccc4n23)cc1OC` [Compound 18h, (1-(3,4-Dimethoxyphenyl)benzo[d]pyrrolo[2,1-b]thiazole-2,3-diyl)dimethanol] yielded a melting point of 215 to 216 °C.

In the case of `COc1cc(-c2c(CO)c(CO)c3sc4ccccc4n23)cc(OC)c1OC` [Compound 18i, (1-(3,4,5-Trimethoxyphenyl)benzo[d]pyrrolo[2,1-b]thiazole-2,3-diyl)dimethanol], the melting point is reported as 160 to 161 °C.
